# Data: patent US8076338B2, “Kinase modulators and methods of use” (Exelixis, Inc., priority 2004, dated 2011)
# Like-named read-outs stand apart in the source and are kept apart here.
# Tests used:
# p70S6K = p70S6K (Homo sapiens, UniProt P23443); test: Luciferase-coupled chemiluminescence kinase assay (ATP consumption); assay type: biochemical
# In short: (§1)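 Activity is read as ATP depletion: luciferase-luciferin reagent added after a 3 h ambient-temperature kinase reaction, with total ATP use limited to 25-60%. Before ATP addition, 2.5-5 nM kinase and compound were preincubated 30 min in Tris pH 7.5/MgCl2/TX-100/DTT buffer; […].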
# AktK = AktK (Homo sapiens, UniProt P31749); test: as above; assay type: biochemical; conditions: read-out: AKT-1 IC50
# AktK, sequence (P31749 whole entry): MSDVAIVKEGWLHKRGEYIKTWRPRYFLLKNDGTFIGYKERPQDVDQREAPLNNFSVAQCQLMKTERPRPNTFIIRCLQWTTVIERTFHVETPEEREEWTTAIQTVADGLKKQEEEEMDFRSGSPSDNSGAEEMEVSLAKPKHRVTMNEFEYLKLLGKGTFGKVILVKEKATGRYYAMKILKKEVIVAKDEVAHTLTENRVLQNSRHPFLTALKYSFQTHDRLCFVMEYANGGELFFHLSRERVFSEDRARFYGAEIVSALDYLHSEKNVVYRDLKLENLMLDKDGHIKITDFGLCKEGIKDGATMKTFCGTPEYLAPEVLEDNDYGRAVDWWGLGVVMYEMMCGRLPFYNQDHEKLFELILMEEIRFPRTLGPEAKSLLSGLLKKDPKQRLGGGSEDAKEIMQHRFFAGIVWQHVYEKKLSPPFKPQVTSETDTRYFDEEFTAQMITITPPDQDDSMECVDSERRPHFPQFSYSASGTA
# In short: as §1
# p70S6K, sequence (P23443 whole entry): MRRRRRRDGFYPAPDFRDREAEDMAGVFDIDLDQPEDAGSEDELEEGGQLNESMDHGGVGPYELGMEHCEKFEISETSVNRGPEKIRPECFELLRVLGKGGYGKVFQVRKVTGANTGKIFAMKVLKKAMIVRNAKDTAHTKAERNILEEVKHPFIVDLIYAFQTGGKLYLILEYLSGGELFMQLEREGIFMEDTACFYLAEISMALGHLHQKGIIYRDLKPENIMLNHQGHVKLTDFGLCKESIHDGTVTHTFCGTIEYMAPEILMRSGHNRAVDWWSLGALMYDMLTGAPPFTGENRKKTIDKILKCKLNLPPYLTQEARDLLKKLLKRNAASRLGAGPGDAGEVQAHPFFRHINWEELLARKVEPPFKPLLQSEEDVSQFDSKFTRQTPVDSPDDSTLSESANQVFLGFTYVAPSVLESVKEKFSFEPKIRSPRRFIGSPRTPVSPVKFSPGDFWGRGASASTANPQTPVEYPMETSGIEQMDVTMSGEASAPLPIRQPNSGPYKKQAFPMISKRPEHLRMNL
Molecule,"IC50 (p70S6K; Table 1, class symbols per key)","IC50 (AktK; Table 1, class symbols per key)",IC50 (p70S6K),IC50 (AktK)
"Cc1ccc(Cl)cc1N1CCN(c2ncnc3[nH]nc(Br)c23)C[C@H]1C [Entry 176, 3-bromo-4-[(3R)-4-(5-chloro-2-methylphenyl)-3-methylpiperazin-1-yl]-1H-pyrazolo[3,4-d]pyrimidine]",0.1 to 1 µM,≥ 10 µM,–,–
"Cn1c(CCCO)nc2c(N3CCN(c4ncnc5[nH]nc(Br)c45)CC3)cc(C(F)(F)F)cc21 [Entry 273, 3-[4-[4-(3-bromo-1H-pyrazolo[3,4-d]pyrimidin-4-yl)piperazin-1-yl]-1-methyl-6-(trifluoromethyl)-1H-benzimidazol-2-yl]propan-1-ol]",< 0.1 µM,0.1 to 1 µM,–,–
"Cc1ccc(Cl)cc1N1CCN(c2nc(-c3ccccc3)nc3[nH]nc(C)c23)CC1 [Entry 322, 4-[4-(5-chloro-2-methylphenyl)piperazin-1-yl]-3-methyl-6-phenyl-1H-pyrazolo[3,4-d]pyrimidine]",–,–,1 to 10 µM,1 to 10 µM
"CCOc1cc(NCCN2CCCC2)c(C)c(N2CCN(c3ncnc4[nH]nc(Br)c34)CC2)c1 [Entry 212, 3-[4-(3-bromo-1H-pyrazolo[3,4-d]pyrimidin-4-yl)piperazin-1-yl]-5-(ethyloxy)-2-methyl-N-(2-pyrrolidin-1-ylethyl)aniline]",< 0.1 µM,< 0.1 µM,–,–
"3-[4-(3-bromo-1H-pyrazolo[3,4-d]pyrimidin-4-yl)piperazin-1-yl]-5-{[(difluoromethyl)oxy]meth-yl}-2-methyl-N-(2-pyrrolidin-1-ylethyl)aniline [Entry 254]",< 0.1 µM,< 0.1 µM,–,–
"Fc1ccccc1N1CCN(c2ncnc3[nH]cnc23)CC1 [Entry 300, 6-[4-(2-fluorophenyl)piperazin-1-yl]-9H-purine]",–,–,1 to 10 µM,≥ 10 µM
"Cc1c(Br)cc(OCC(F)(CF)CF)cc1N1CCN(c2ncnc3[nH]nc(Br)c23)CC1 [Entry 250, 3-bromo-4-[4-(3-bromo-5-{[2,3-difluoro-2-(fluoromethyl)propyl]oxy}-2-methylphenyl)pipera-zin-1-yl]-1H-pyrazolo[3,4-d]pyrimidine]",< 0.1 µM,0.1 to 1 µM,–,–
"COc1ccccc1-c1n[nH]c2ncnc(N3CCN(c4cc(Cl)ccc4C)CC3)c12 [Entry 363, 4-[4-(5-chloro-2-methylphenyl)piperazin-1-yl]-3-[2-(methyloxy)phenyl]-1H-pyrazolo[3,4-d]pyrimidine]",–,–,0.1 to 1 µM,1 to 10 µM
"CCc1n[nH]c2ncnc(N3CCN(c4cc(Cl)cc(C(=O)OCCN(C)C)c4OC)CC3)c12 [Entry 376, 2-(dimethylamino)ethyl 5-chloro-3-[4-(3-ethyl-1H-pyrazolo[3,4-d]pyrimidin-4-yl)piperazin-1-yl]-2-(methyloxy)benzoate]",–,–,< 0.1 µM,1 to 10 µM
"CCc1n[nH]c2ncnc(N3CCN(c4cc(Cl)cc(NCCN(C)C)c4C)CC3)c12 [Entry 386, N′-{5-chloro-3-[4-(3-ethyl-1H-pyrazolo[3,4-d]pyrimidin-4-yl)piperazin-1-yl]-2-methylphenyl}-N,N-dimethylethane-1,2-diamine]",–,–,< 0.1 µM,0.1 to 1 µM
"Fc1ccc(F)c(N2CCN(c3ncnc4[nH]nc(Br)c34)CC2)c1 [Entry 131, 3-bromo-4-[4-(2,5-difluorophenyl)piperazin-1-yl]-1H-pyrazolo[3,4-d]pyrimidine]",< 0.1 µM,≥ 10 µM,–,–
"CCc1n[nH]c2ncnc(N3CCN(c4nccc5ccccc45)CC3)c12 [Entry 102, 1-[4-(3-ethyl-1H-pyrazolo[3,4-d]pyrimidin-4-yl)piperazin-1-yl]isoquinoline]",< 0.1 µM,≥ 10 µM,–,–
"Cc1c(OCCCN2CCN(C)CC2)cc(Cl)cc1N1CCN(c2ncnc3[nH]nc(Br)c23)CC1 [Entry 85, 3-bromo-4-[4-(5-chloro-2-methyl-3-{[3-(4-methylpiperazin-1-yl)propyl]oxy}phenyl)piperazin-1-yl]-1H-pyrazolo[3,4-d]pyrimidine]",< 0.1 µM,< 0.1 µM,–,–
"Cc1c(CCCN2CCN(C)CC2)cc(Cl)cc1N1CCN(c2ncnc3[nH]nc(C(F)(F)F)c23)CC1 [Entry 92, 4-(4-{5-chloro-2-methyl-3-[3-(4-methylpiperazin-1-yl)propyl]phenyl}piperazin-1-yl)-3-(trifluoro-methyl)-1H-pyrazolo[3,4-d]pyrimidine]",< 0.1 µM,0.1 to 1 µM,–,–
"Cc1ccc(N2CCN(c3ncnc4[nH]nc(Br)c34)CC2)c(C)c1 [Entry 64, 3-bromo-4-[4-(2,4-dimethylphenyl)piperazin-1-yl]-1H-pyrazolo[3,4-d]pyrimidine]",0.1 to 1 µM,1 to 10 µM,–,–
"Cc1ccc(-c2ccccc2OCCCN(C)C)cc1N1CCN(c2ncnc3[nH]nc(Br)c23)CC1 [Entry 276, 3-({3′-[4-(3-bromo-1H-pyrazolo[3,4-d]pyrimidin-4-yl)piperazin-1-yl]-4′-methylbiphenyl-2-yl}oxy)-N,N-dimethylpropan-1-amine]",< 0.1 µM,< 0.1 µM,–,–

Molecule,"IC50 (p70S6K; Table 1, class symbols per key)","IC50 (AktK; Table 1, class symbols per key)",IC50 (p70S6K),IC50 (AktK)
"O=C(COc1cccc(N2CCN(c3ncnc4[nH]nc(Br)c34)CC2)c1)NC1CC1 [Entry 166, 2-({3-[4-(3-bromo-1H-pyrazolo[3,4-d]pyrimidin-4-yl)piperazin-1-yl]phenyl}oxy)-N-cyclopropylacetamide]",< 0.1 µM,1 to 10 µM,–,–
"CC(C)CCNc1c(F)c(NCCN2CCCC2)nc(N2CCN(c3ncnc4[nH]nc(Br)c34)CC2)c1F [Entry 264, 6-[4-(3-bromo-1H-pyrazolo[3,4-d]pyrimidin-4-yl)piperazin-1-yl]-3,5-difluoro-N~4~-(3-methylbutyl)-N~2~-(2-pyrrolidin-1-ylethyl)pyridine-2,4-diamine]",< 0.1 µM,0.1 to 1 µM,–,–
"FC(F)(F)c1cccc(N2CCN(c3ncnc4[nH]ncc34)CC2)c1 [Entry 316, 4-{4-[3-(trifluoromethyl)phenyl]piperazin-1-yl}-1H-pyrazolo[3,4-d]pyrimidine]",–,–,< 0.1 µM,≥ 10 µM
"CCc1n[nH]c2ncnc(N3CCN(c4cc(Cl)cc(CCCN(CC)CC)c4C)CC3)c12 [Entry 402, 3-{5-chloro-3-[4-(3-ethyl-1H-pyrazolo[3,4-d]pyrimidin-4-yl)piperazin-1-yl]-2-methylphenyl}-N,N-diethylpropan-1-amine]",–,–,< 0.1 µM,0.1 to 1 µM
"CCc1n[nH]c2ncnc(N3CCN(c4cc(Cl)cc(OCCCN5CCCC5)c4C)CC3)c12 [Entry 35, 4-(4-{5-chloro-2-methyl-3-[(3-pyrrolidin-1-ylpropyl)oxy]phenyl}piperazin-1-yl)-3-ethyl-1H-pyrazolo[3,4-d]pyrimidine]",< 0.1 µM,0.1 to 1 µM,–,–
"Cc1c(OCCCN2CCN(C)CC2)cc(Cl)cc1N1CCN(c2ncnc3[nH]nc(C(F)(F)F)c23)CC1 [Entry 70, 4-[4-(5-chloro-2-methyl-3-{[3-(4-methylpiperazin-1-yl)propyl]oxy}phenyl)piperazin-1-yl]-3-(trifluoromethyl)-1H-pyrazolo[3,4-d]pyrimidine]",< 0.1 µM,0.1 to 1 µM,–,–
"Clc1ccccc1N1CCN(c2ncnc3[nH]cnc23)CC1 [Entry 299, 6-[4-(2-chlorophenyl)piperazin-1-yl]-9H-purine]",–,–,1 to 10 µM,≥ 10 µM
"CCN(CC)CCCOc1nc(Cl)nc(N2CCN(c3ncnc4[nH]nc(Br)c34)CC2)c1C [Entry 149, 3-({6-[4-(3-bromo-1H-pyrazolo[3,4-d]pyrimidin-4-yl)piperazin-1-yl]-2-chloro-5-methylpyrimidin-4-yl}oxy)-N,N-diethylpropan-1-amine]",0.1 to 1 µM,1 to 10 µM,–,–
"Cc1c(NCCN2CCCC2)cc(OC(F)F)cc1N1CCN(c2ncnc3[nH]nc(Br)c23)CC1 [Entry 253, 3-[4-(3-bromo-1H-pyrazolo[3,4-d]pyrimidin-4-yl)piperazin-1-yl]-5-[(difluoromethyl)oxy]-2-methyl-N-(2-pyrrolidin-1-ylethyl)aniline]",< 0.1 µM,< 0.1 µM,–,–
"CCN(CC)CC#Cc1n[nH]c2ncnc(N3CCN(c4cc(Cl)ccc4C)CC3)c12 [Entry 392, 3-{4-[4-(5-chloro-2-methylphenyl)piperazin-1-yl]-1H-pyrazolo[3,4-d]pyrimidin-3-yl}-N,N-diethylprop-2-yn-1-amine]",–,–,< 0.1 µM,1 to 10 µM
"CC(C)CCNc1c(F)c(F)nc(N2CCN(c3ncnc4[nH]nc(Br)c34)CC2)c1F [Entry 257, 2-[4-(3-bromo-1H-pyrazolo[3,4-d]pyrimidin-4-yl)piperazin-1-yl]-3,5,6-trifluoro-N-(3-methylbutyl)pyridin-4-amine]",0.1 to 1 µM,1 to 10 µM,–,–
"Cc1n[nH]c2ncnc(N3CCN(c4cccc(Cl)c4)CC3)c12 [Entry 318, 4-[4-(3-chlorophenyl)piperazin-1-yl]-3-methyl-1H-pyrazolo[3,4-d]pyrimidine]",–,–,< 0.1 µM,≥ 10 µM
"CCc1n[nH]c2ncnc(N3CCN(c4cc(F)cc(NCCN5CCCC5)c4Cl)CC3)c12 [Entry 130, 2-chloro-3-[4-(3-ethyl-1H-pyrazolo[3,4-d]pyrimidin-4-yl)piperazin-1-yl]-5-fluoro-N-(2-pyrrolidin-1-ylethyl)aniline]",< 0.1 µM,1 to 10 µM,–,–
"Cc1ccc(-c2ccccc2OCCN2C(=O)CCC2=O)cc1N1CCN(c2ncnc3[nH]nc(Br)c23)CC1 [Entry 281, 1-[2-({3′-[4-(3-bromo-1H-pyrazolo[3,4-d]pyrimidin-4-yl)piperazin-1-yl]-4′-methylbiphenyl-2-yl}oxy)ethyl]pyrrolidine-2,5-dione]",< 0.1 µM,< 0.1 µM,–,–
"COc1ccc(N2CCN(c3ncnc4[nH]cnc34)CC2)cc1 [Entry 306, 6-{4-[4-(methyloxy)phenyl]piperazin-1-yl}-9H-purine]",–,–,1 to 10 µM,≥ 10 µM
"C#Cc1cc(NCCN2CCCC2)c(C)c(N2CCN(c3ncnc4[nH]nc(Br)c34)CC2)c1 [Entry 237, 3-[4-(3-bromo-1H-pyrazolo[3,4-d]pyrimidin-4-yl)piperazin-1-yl]-5-ethynyl-2-methyl-N-(2-pyrrolidin-1-ylethyl)aniline]",< 0.1 µM,< 0.1 µM,–,–
